Assays:
mouse platelets = experiment: Mouse platelet spreading on immobilized fibrinogen; assay type: cell-based
human platelets [1] = assay type: cell-based
Method: The clots were photographed at various time points. […] Statistical significance was determined using t-test.
Studies using human platelets were approved by institutional review board of University of Illinois at Chicago.
Coverslides were pre-coated with 100 μg/ml fibrinogen and blocked with 5% BSA in PBS. 300 μl αIIbβ3-expressing CHO cells (expressing WT or mutant integrins; 1×10^5/ml) or platelets (1×10^7/ml) suspended in Tyrode's buffer were added to coverslides and incubated at 37° C. for various lengths of time. Cells were fixed with 4% paraformaldehyde (PFA) for 10 minutes and permeabilized with 0.1% Triton X-100 in PBS for 2 minutes. After blocking with 5% BSA for 10 minutes, coverslides were incubated with 0.2 μg/ml mAb 15, or Alexa Fluor-546 conjugated phalloidin. For mouse platelets re-express wild type β3 or the AAA mutant of β3, β3 was immuno-stained with the anti-β3 monoclonal antibody MAb 15 and Alexa Fluor-546 conjugated phalloidin. The slides were scanned with a Zeiss LSM5 10 META confocal microscope as previously described^11

RhoA [2] = details: mouse platelets from siRNA-transfected stem cells
Method: (FIG. 6B) Scrambled siRNA, Gα13 siRNA #1- and Gα13 siRNA #2-transfected platelets were allowed to adhere to immobilized fibrinogen for the indicated time, and analyzed for c-Src activation and RhoA activity.
(§1) Platelets in modified Tyrode's buffer or adherent on immobilized fibrinogen were lysed quickly in 0.8 ml lysis buffer (50 mM Tris, pH 7.4, 10 mM MgCl2, 500 mM NaCl, 1% Triton X-100, 0.1% SDS, 0.5% deoxycholate, 10 μg/ml each of aprotinin and leupeptin, 1 mM phenylmethylsulfonyl fluoride, and 200 μM sodium vanadate). Lysates were cleared by centrifugation at 18,000 g for 2 minutes at 4° C., and the supernatant was incubated for 1 hour with 30 μg purified GST-Rhotekin RhoA-binding domain fusion protein (GST-RBD) bound to glutathione-Sepharose beads (S10). Samples were washed three times using washing buffer (50 mM Tris, pH 7.4, 10 mM MgCl2, 150 mM NaCl, 1% Triton X-100) and then immunoblotted with an anti-RhoA monoclonal antibody. Cell lysates were also immunoblotted with anti-RhoA as loading control.

c-Src = tested on: c-Src
Method: Two different Gα13 siRNA target sequences were used: siRNA #1, 5′-[…] (SEQ ID NO: 56); siRNAi #2, 5′-[…] (SEQ ID NO: 57). Scrambled siRNA sequence is: 5′-[…]-3′ (SEQ ID NO: 58). These sequences are conserved in hamsters and mice. Lentivirus was prepared by co-transfection of pLL3.7-scrambled siRNA or pLL3.7-Gα13 siRNA (#1 and #2) with pLP1, pLP2 and pLP/VSVG plasmids (Invitrogen) into ˜90% confluent 293FT cells using Lipofectamine 2000. 48 hours after transfection, cell culture medium containing virus was filtered, titered and stored at −80° C. Bone manow cells from 6-8 week old healthy C57/BL mice were isolated aseptically from femurs and tibias. Stem cells were negatively selected by MACS Lineage cell depletion kit (Miltenyi Biotec) and cultured in RPMI 1640 complete medium with 10 ng/ml interleukin-3, 10 ng/ml interleukin-6, 10 ng/ml granulocyte-macrophage colony stimulating factor (GM-CSF), and 100 ng/ml stem cell factor (SCF). 50 multiplicity of infection (MOI) lenti-virus was used to infect mice bone marrow stem cells twice with 6 μg/ml polybrene. 48 hours after infection, 5×10^6 stem cells resuspended in PBS were transplanted by retrobulbar injection into lethally irradiated (10.5 Gy) C57/BL mice one day after irradiation (S11). The siRNA-resistant mutants of Gα13 were generated by PCR.

Gα13 binding to β3 = target: T1, Gα13 binding to β3 (Homo sapiens, UniProt P05106+Q14344); experiment: Co-immunoprecipitation of β3 with Gα13 from platelet lysates; details: platelets stimulated with thrombin, 2 mM RGDS
T1 construct: Proteins from platelet lysates were immunoprecipitated with control IgG or antibody to Gα13; The integrin αIIbβ3 was co-immunoprecipitated by anti-Gα13 antibody, but not control IgG, from platelet lysates; endogenous in cells; host or cells: washed human platelets (lysates)
T1 sequence (Q14344 1-377): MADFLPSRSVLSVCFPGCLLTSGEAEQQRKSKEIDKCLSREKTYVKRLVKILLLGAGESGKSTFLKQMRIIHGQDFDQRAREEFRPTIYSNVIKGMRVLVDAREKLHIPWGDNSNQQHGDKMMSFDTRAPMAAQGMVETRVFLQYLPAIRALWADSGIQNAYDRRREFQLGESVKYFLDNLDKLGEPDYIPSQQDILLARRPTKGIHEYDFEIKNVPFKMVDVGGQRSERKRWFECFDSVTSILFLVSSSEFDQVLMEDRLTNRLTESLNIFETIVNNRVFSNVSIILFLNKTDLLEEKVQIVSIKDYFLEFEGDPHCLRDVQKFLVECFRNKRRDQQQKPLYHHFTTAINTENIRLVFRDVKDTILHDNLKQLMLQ
T1 sequence (P05106 27-788): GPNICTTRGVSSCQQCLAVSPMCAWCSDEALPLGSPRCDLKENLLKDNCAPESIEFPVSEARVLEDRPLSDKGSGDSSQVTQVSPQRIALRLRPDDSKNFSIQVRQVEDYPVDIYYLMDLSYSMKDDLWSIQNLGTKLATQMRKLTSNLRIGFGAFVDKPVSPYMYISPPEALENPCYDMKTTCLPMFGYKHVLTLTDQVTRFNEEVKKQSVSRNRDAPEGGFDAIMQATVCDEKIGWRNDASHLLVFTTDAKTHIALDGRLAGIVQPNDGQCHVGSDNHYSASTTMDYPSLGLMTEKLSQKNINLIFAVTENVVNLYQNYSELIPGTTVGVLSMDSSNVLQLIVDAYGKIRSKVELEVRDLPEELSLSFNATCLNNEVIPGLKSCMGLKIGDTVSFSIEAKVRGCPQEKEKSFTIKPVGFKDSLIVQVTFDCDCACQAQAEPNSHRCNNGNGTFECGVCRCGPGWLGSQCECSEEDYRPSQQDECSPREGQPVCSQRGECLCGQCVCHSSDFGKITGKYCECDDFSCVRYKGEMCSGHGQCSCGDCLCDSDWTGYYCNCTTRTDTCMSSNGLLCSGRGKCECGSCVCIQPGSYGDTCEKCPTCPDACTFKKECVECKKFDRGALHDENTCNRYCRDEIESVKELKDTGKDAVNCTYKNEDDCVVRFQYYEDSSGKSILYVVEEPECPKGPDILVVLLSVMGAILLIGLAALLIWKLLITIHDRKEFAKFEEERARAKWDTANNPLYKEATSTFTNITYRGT
Method: As previously described (S7), cell lysates were incubated with 2 μg/ml of D57 (antibody to integrin αIIbβ3), LJP3 (antibody against GPIb), or mouse IgG, and further incubated with protein G-conjugated Sepharose beads. Cell lysates were also incubated with rabbit anti-Gα13 IgG antibody (1.5 μg/ml) or an equal amount of rabbit IgG and further incubated with protein A-conjugated Sepharose beads. After 3-6 washes with lysis buffer, immunoprecipitates were analyzed by SDS-polyacrylamide gel electrophoresis and Western blots with antibodies against β3 (MAb15), GPIb (anti-IbαC (S8)) or Gα13. In some experiments, 1 μM GDP, 1 μM GTPγS or 30 μM AlF4^− were added to the reaction to assess the effect of Gα13 activation on integrin binding. In other experiments, 250 μM mSRI or scrambled control peptide was incubated with platelet lysates prior to immunoprecipitation. GST bead pull down analysis was previously described (S7). Purified Gα13 was incubated with glutathione beads-bound to GST, GST-β1CD or GST-β3 CD at 4° C. overnight. Bead-bound proteins were analyzed by immunoblotting. For GST-β3CD cDNA construction, integrin-β3 cytoplasmic domain (716-762) cDNA was generated by PCR and cloned into pGEX-4T2 vector using Bam HI and Xho I restriction sites. The forward primer is 5′-[…]-3′ (SEQ ID NO: 48); the reverse primer is 5′-[…]-3′ (SEQ ID NO: 49). For GST-I31CD cDNA construction, β1 cytoplasmic domain (752-798) cDNA was amplified by PCR and cloned into pGEX-4T1 vector using EcoRI and Xho I restriction sites. The primer sequences are: (1) forward: 5′-[…]-3′ (SEQ ID NO: 50); (2) reverse: […]-3′ (SEQ ID NO: 51). GST, GST-β1CD and GST-β3CD were purified from BL21 (DE3) E. coli using glutathione-conjugated beads.
Cell lysates were incubated with rabbit anti-Gα13 IgG (1.5 μg/ml), anti-integrin β3 rabbit serum (5 μl/ml) or an equal amount of rabbit IgG or pre-immune serum at 4° C. overnight, and subsequently with protein A-conjugated Sepharose beads for 1 hour. For the integrin β3 clustering experiment, human platelets (3×10^8) were stimulated with 0.025 U/ml α-thrombin for 2 minutes at room temperature (to avoid platelet aggregation) with or without 2 mM RGDS, then incubated with 5 μl anti-integrin β3 8053 rabbit serum at room temperature for 1 hour, and 5 μg goat anti-rabbit secondary antibody for another 1 hour. Platelets were then solubilized in modified RIPA Buffer. For the un-clustering control and pre-immune serum control, cells were solubilized in modified RIPA Buffer first, than incubated with 5 μl 8053 serum or pre-immune serum. After 3-6 washes with lysis buffer, immunoprecipitates were analyzed by SDS-polyacrylamide gel electrophoresis and Western blots using antibodies against β3, talin, or Gα13. In some experiments, 500 μM control or inhibitor peptides, mP5, mP7 and mP13 were incubated with platelet lysates prior to immunoprecipitation, or 2 mM RGDS was added into washed human platelets before stimulation by 0.025 U/ml α-thrombin. GST bead pull down analysis was previously described^8. Purified Gα13 or MBP-talin head were incubated with glutathione beads-bound to GST or GST-β3CD at 4° C. overnight. Bead-bound proteins were analyzed by immunoblotting.

RhoA [3] = experiment: RhoA activity assay (GST-RBD pull down) in platelets; assay type: cell-based, human; details: platelets stimulated with thrombin, 2 mM RGDS
Method: as §1

[4] = C57BL/6 mice, FeCl3 carotid artery injury, compared to scrambled control ERAFEE
Method: In this study, adult mice are anesthetized by intraperitoneal injection of pentobarbital (120 mg/kg). The left common carotid artery is surgically exposed and a miniature Doppler flow probe (Model 0.5VB; Transonic Systems, Ithaca, N.Y.) is placed on the surface of the artery. After adding 0.9% sodium chloride solution in the surgical wound to allow Doppler monitoring, baseline blood flow is recorded using a Transonic flowmeter. Thereafter, sodium chloride solution is removed and filter paper (round, 1.0 mm in diameter) saturated with 10% FeCl3 is applied to the surface of the carotid artery immediately proximal to the flow probe. After 3 minutes, the filter paper is removed, saline solution is again administered to the wound, and carotid blood flow is monitored. If occlusive thrombosis occurs to the injured carotid artery, blood flow is reduced to zero. ExE motif peptide micelles and controls are injected i.v. via the tail vein in C57BL/6 mice, then tested for occlusive thrombosis using this model.

human platelets [5] = tested on: human platelets
Method: Platelet aggregation assays were carried out as follows: Platelet aggregation and secretion was measured in a turbidometric platelet aggregometer (Chronolog) at 37° C. with stirring (1000 rpm). Washed platelets (3×10^8/ml) in modified Tyrode's buffer were stimulated with thrombin (Enzyme Research Laboratories). For talin knockdown platelet aggregation assay stimulated with manganese and ADP, manganese and ADP was mixed prior to experiment to achieve final concentration of 1 mM manganese and 5 μM ADP in reaction tube. Aggregation traces shown are representative of at least three independent experiments.
Platelet aggregation assays were performed with myristoylated peptide mP5, myristoylated peptide of SEQ: ID NO: 87, or their respective scarmbled control peptides, as essentially described herein. Briefly, washed human platelets were preincubated with 25, 50, 100, 250, or 500 μM peptide solubilized in DMSO.

## C[C@@H](N)[C@H]1CC[C@H](C(=O)Nc2ccncc2)CC1 [Y27632, reference compound]
Mouse platelets; Gα13-depleted mouse platelets
  inhibitory effect of Gα13 depletion on platelet spreading (reversal): reversed
Human platelets [1]; platelets treated with mP5
  inhibitory effect of mP5 on platelet spreading (reversal): reversed
Human platelets [1]; platelets treated with mSRI
  inhibitory effect of mSRI on platelet spreading (reversal): reversed

## CC(=O)Oc1ccccc1C(=O)O [aspirin, reference compound]
Mouse platelets; mouse platelets pre-incubated with 1 mM aspirin
  platelet spreading on fibrinogen: did not affect

## 5′-GTCCACCTTCCTGAAGCAG [Gα13 siRNA #1]
RhoA [2]
  activation of RhoA: accelerated
c-Src
  c-Src activation: inhibited
Mouse platelets
  platelet spreading: inhibited

## RGDS [reference compound]
Gα13 binding to β3
  Thrombin-stimulated binding of Gα13 to αIIbβ3: inhibited
RhoA [3]
  RhoA inhibition simultaneous with thrombin-stimulated Gα13-αIIbβ3 binding: inhibited

## FEEERA
[4]
  time to occlusion: increased
Human platelets [5]; 25-500 μM peptide in DMSO, 0.09 U/ml thrombin, washed human platelets
  inhibition of platelet aggregation, doses compared to the mP5 peptide: inhibit platelet aggregation at lower doses
Human platelets [5]; preliminary dose-dependent study, DMSO solution vs micellar formulation
  concentration required for the maximal effect on in vitro platelet aggregation: 250 µM

## 5′-GGAGATCGACAAATGCCTG [Gα13 siRNA #2]
RhoA [2]
  activation of RhoA: accelerated
c-Src
  c-Src activation: inhibited
Mouse platelets
  platelet spreading: inhibited
